{"source": "patent US8741907B2", "about": "“Alkyl-substituted pyrazolopyrimidines” (Boehringer Ingelheim International GmbH, priority 2002, dated 2014)", "key": {"[1]": {"target": "T1, PDE9A (Homo sapiens (Human), UniProt O76083)", "T1 sequence (O76083 whole entry)": "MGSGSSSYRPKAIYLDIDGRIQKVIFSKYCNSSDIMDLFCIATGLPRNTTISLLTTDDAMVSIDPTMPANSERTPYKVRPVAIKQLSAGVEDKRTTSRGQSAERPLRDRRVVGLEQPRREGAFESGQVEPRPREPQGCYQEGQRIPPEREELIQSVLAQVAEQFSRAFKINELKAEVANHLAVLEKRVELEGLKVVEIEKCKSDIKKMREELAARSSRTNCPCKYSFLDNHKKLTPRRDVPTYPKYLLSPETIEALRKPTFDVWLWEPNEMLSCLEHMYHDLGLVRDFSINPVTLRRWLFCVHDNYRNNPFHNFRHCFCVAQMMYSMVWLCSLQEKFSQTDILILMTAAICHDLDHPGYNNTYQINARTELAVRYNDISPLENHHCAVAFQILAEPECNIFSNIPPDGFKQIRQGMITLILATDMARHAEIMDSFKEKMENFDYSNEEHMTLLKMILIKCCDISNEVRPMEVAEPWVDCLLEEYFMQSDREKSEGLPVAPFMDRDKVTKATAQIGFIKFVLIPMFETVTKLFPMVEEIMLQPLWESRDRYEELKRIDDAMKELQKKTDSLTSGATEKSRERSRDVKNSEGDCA", "details": "concentrations of up to 100 μM; cited from earlier work"}, "[2]": {"target": "PDE1C (Homo sapiens (Human), UniProt Q14123)", "assay": "PDE inhibition, recombinant PDE1C", "format": "biochemical"}, "[3]": {"target": "PDE3B (Homo sapiens (Human), UniProt Q13370)", "assay": "PDE inhibition, recombinant PDE3B", "format": "biochemical", "from_the_text": "(§1) Recombinant PDE1C (GenBank/EMBL Accession Number: NM_005020, Loughney et al. J. Biol. Chem. 1996 271, 796-806), PDE2A (GenBank/EMBL Accession Number: NM_002599, Rosman et al. Gene 1997 191, 89-95), PDE3B (GenBank/EMBL Accession Number: NM_000922, Miki et al. Genomics 1996, 36, 476-485), PDE4B (GenBank/EMBL Accession Number: NM_002600, Obernolte et al. Gene. 1993, 129, 239-247), PDE5A (GenBank/EMBL Accession Number: NM_001083, Loughney et al. Gene 1998, 216, 139-147), PDE7B (GenBank/EMBL Accession Number: NM_018945, Hetman et al. Proc. Natl. Acad. Sci. U.S.A. 2000, 97, 472-476), PDE8A (GenBank/EMBL Accession Number. AF—056490, Fisher et al. Biochem. Biophys. Res. Commun. […]\n(§2) The test substances are dissolved in 100% DMSO and serially diluted to determine their in vitro effect on PDE 9A. […] The plates are then measured for 30 s per well in a Microbeta scintillation counter (Wallac Inc., Atlanta, Ga.). IC50 values are determined from the graphical plot of the substance concentration versus the percentage inhibition.\n(§3) The in vitro effect of test substances on recombinant PDE3B, PDE4B, PDE7B, PDE8A, PDE10A and PDE11A is determined in accordance with the assay protocol described above for PDE9A with the following adaptations: [5′,8-^3H] adenosine 3′,5′-cyclic phosphate (1 μCi/μL; Amersham Pharmacia Biotech., Piscataway, N.J.) is used as substrate. […]"}, "[4]": {"target": "PDE7B (Homo sapiens (Human), UniProt Q9NP56)", "sequence (Q9NP56 whole entry)": "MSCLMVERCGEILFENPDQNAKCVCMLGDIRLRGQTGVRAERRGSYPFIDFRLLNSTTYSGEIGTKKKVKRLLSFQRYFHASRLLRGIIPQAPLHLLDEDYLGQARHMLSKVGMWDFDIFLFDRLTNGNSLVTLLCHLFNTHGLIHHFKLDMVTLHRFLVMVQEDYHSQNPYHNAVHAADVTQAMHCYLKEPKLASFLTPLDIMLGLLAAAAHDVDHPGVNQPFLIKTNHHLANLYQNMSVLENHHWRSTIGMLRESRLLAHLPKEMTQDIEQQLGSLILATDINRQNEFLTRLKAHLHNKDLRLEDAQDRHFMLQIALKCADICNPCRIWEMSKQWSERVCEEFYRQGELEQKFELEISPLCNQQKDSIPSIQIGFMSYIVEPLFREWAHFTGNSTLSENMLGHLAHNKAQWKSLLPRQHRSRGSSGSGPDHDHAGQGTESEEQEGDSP", "assay": "PDE inhibition, recombinant PDE7B", "format": "biochemical", "from_the_text": "as §1, §2, §3"}, "[5]": {"target": "PDE4B (Homo sapiens, UniProt Q07343)", "sequence (Q07343 whole entry, looked up)": "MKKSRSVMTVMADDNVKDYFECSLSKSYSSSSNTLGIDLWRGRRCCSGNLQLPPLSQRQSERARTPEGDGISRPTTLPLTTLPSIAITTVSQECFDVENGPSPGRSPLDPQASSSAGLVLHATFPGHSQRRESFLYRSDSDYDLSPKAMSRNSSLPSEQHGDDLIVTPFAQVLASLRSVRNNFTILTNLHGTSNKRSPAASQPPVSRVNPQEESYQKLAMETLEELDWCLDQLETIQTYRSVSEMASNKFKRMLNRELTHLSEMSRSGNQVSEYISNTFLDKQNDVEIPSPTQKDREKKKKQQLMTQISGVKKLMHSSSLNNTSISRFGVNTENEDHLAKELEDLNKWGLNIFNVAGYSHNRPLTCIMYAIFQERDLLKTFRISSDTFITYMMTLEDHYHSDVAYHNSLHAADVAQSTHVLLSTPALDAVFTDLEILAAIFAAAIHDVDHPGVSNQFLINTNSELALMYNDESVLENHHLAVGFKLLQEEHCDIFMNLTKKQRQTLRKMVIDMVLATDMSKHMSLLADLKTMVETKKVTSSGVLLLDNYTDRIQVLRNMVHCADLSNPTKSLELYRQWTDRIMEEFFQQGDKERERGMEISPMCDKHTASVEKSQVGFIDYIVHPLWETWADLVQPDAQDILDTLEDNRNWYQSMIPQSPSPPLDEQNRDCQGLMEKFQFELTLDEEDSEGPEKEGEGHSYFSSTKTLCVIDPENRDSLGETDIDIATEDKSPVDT", "assay": "PDE inhibition, recombinant PDE4B", "format": "biochemical", "experimental": "The test substances are dissolved in 100% DMSO and serially diluted to determine their in vitro effect on PDE 9A. […] 2 μL portions of the diluted substance solutions are introduced into the wells of microtiter plates (Isoplate; Wallac Inc., Atlanta, Ga.). Then 50 μL of a dilution of the PDE9A preparation described above are added. […] The substrate, [8-^3H] guanosine 3′,5′-cyclic phosphate (1 μCi/μL; Amersham Pharmacia Biotech., Piscataway, N.J.) is diluted 1:2000 with assay buffer (50 mM Tris/HCl pH 7.5, 8.3 mM MgCl2, 1.7 mM EDTA) to a concentration of 0.0005 μCi/μL. The enzyme reaction is finally started by adding 50 μL (0.025 μCi) of the diluted substrate. […] Immediately thereafter, 25 μL of a suspension containing 18 mg/mL Yttrium Scintillation Proximity Beads (Amersham Pharmacia Biotech., Piscataway, N.J.) are added. […] The plates are then measured for 30 s per well in a Microbeta scintillation counter (Wallac Inc., Atlanta, Ga.). IC50 values are determined from the graphical plot of the substance concentration versus the percentage inhibition.\nThe in vitro effect of test substances on recombinant PDE3B, PDE4B, PDE7B, PDE8A, PDE10A and PDE11A is determined in accordance with the assay protocol described above for PDE9A with the following adaptations: [5′,8-^3H] adenosine 3′,5′-cyclic phosphate (1 μCi/μL; Amersham Pharmacia Biotech., Piscataway, N.J.) is used as substrate."}, "[6]": {"target": "PDE10A (Homo sapiens (Human), UniProt Q9Y233)", "sequence (Q9Y233 other isoform, or with tags, fused parts or gaps)": "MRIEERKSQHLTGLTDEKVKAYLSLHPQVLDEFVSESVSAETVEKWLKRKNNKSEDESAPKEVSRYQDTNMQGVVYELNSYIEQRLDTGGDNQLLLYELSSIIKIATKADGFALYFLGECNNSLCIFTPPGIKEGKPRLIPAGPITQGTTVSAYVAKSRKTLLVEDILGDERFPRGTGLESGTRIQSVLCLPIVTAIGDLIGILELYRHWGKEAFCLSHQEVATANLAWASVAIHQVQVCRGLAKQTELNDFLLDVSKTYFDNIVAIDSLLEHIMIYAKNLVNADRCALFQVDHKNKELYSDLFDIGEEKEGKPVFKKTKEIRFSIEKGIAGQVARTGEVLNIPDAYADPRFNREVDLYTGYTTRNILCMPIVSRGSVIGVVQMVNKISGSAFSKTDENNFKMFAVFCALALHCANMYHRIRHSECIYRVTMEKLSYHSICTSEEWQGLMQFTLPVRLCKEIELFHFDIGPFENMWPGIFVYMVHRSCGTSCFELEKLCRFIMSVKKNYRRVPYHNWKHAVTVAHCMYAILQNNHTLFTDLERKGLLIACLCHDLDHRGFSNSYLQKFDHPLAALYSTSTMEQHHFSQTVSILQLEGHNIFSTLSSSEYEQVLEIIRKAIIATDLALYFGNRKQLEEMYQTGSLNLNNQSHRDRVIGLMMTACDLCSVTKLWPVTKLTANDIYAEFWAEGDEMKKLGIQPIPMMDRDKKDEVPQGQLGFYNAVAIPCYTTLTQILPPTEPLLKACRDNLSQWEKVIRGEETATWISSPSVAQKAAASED", "assay": "PDE inhibition, recombinant PDE10A", "format": "biochemical", "from_the_text": "as §1, §2, §3"}, "[7]": {"target": "PDE5A (Homo sapiens (Human), UniProt O76074)", "assay": "PDE inhibition, recombinant PDE5A", "format": "biochemical", "from_the_text": "as §1, §2, §3"}, "[8]": {"target": "PDE2A (Homo sapiens (Human), UniProt O00408)", "sequence (O00408 whole entry)": "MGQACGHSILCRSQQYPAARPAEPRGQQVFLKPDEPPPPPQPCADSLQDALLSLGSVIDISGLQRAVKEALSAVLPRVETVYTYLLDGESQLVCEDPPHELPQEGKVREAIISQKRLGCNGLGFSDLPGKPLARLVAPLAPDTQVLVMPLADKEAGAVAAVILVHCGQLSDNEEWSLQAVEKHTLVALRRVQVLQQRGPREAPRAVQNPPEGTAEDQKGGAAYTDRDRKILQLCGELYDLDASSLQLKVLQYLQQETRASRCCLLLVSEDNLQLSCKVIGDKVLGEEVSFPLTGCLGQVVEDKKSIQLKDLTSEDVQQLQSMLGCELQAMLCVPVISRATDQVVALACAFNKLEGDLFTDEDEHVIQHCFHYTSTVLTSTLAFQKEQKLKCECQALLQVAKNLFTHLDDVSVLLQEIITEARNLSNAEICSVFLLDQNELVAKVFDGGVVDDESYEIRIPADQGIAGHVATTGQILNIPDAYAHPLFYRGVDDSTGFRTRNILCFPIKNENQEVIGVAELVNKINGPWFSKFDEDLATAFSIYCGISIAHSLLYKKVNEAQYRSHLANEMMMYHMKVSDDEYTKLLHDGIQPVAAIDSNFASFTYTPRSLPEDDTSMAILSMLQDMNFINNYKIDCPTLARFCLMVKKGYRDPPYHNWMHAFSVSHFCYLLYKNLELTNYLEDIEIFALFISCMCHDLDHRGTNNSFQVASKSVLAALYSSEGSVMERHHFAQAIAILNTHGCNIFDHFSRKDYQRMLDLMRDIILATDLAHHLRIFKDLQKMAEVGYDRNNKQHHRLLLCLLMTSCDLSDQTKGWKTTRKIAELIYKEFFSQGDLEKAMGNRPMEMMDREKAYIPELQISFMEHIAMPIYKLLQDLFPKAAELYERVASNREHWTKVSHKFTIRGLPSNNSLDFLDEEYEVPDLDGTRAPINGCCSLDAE", "assay": "PDE inhibition, recombinant PDE2A", "format": "biochemical", "from_the_text": "as §1, §2, §3"}, "[9]": {"target": "PDE8A (Homo sapiens (Human), UniProt O60658)", "sequence (O60658 117-829)": "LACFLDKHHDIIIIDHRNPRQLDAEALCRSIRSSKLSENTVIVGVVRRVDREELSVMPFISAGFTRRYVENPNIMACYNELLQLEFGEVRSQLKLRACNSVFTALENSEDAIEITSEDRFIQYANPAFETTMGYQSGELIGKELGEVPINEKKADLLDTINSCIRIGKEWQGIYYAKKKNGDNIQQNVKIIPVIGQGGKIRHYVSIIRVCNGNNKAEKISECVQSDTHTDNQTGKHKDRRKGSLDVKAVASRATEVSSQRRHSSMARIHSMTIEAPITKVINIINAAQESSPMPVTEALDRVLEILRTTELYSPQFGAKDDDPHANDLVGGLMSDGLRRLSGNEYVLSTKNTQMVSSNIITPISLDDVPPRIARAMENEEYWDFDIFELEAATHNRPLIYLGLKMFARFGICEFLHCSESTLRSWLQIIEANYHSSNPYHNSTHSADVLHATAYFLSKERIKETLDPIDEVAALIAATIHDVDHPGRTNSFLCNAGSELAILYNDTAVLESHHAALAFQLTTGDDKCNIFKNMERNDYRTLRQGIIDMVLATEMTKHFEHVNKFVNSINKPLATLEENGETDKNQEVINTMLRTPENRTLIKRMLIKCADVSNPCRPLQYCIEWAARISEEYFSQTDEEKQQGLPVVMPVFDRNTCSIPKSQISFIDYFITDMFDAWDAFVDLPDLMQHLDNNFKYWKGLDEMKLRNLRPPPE", "assay": "PDE inhibition, recombinant PDE8A", "format": "biochemical", "from_the_text": "as §1, §2, §3"}, "[10]": {"target": "T1, PDE9A", "assay": "PDE inhibition, recombinant PDE9A", "format": "biochemical", "experimental": "The test substances are dissolved in 100% DMSO and serially diluted to determine their in vitro effect on PDE 9A. […] 2 μL portions of the diluted substance solutions are introduced into the wells of microtiter plates (Isoplate; Wallac Inc., Atlanta, Ga.). Then 50 μL of a dilution of the PDE9A preparation described above are added. […] The substrate, [8-^3H] guanosine 3′,5′-cyclic phosphate (1 μCi/μL; Amersham Pharmacia Biotech., Piscataway, N.J.) is diluted 1:2000 with assay buffer (50 mM Tris/HCl pH 7.5, 8.3 mM MgCl2, 1.7 mM EDTA) to a concentration of 0.0005 μCi/μL. The enzyme reaction is finally started by adding 50 μL (0.025 μCi) of the diluted substrate. […] Immediately thereafter, 25 μL of a suspension containing 18 mg/mL Yttrium Scintillation Proximity Beads (Amersham Pharmacia Biotech., Piscataway, N.J.) are added. The microliter plates are sealed with a film and left to stand at room temperature for 60 min. The plates are then measured for 30 s per well in a Microbeta scintillation counter (Wallac Inc., Atlanta, Ga.). IC50 values are determined from the graphical plot of the substance concentration versus the percentage inhibition."}, "[11]": {"target": "Murine PDE9A (Mus musculus (Mouse), UniProt O70628)", "sequence (O70628 whole entry)": "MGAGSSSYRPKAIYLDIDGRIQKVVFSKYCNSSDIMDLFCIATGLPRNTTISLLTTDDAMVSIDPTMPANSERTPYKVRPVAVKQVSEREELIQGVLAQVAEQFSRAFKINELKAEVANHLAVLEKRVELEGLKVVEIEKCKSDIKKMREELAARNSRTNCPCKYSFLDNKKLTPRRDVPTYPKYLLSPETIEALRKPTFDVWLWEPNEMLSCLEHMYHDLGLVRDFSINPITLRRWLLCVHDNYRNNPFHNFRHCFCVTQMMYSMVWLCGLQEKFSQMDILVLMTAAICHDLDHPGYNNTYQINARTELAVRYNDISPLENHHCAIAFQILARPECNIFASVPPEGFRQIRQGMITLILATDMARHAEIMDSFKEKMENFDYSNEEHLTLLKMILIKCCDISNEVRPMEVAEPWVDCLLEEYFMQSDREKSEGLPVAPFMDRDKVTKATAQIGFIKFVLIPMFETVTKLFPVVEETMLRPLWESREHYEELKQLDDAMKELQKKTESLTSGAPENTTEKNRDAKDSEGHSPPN", "details": "concentrations below 200 μM; cited from earlier work"}}, "data": [{"smiles": "CCC(C)Cc1nc2c(cnn2C2CCCC2)c(=O)[nH]1", "note": "(stereo not shown)", "values": [{"measurement": "melting point", "result": 86, "unit": "°C"}]}, {"smiles": "O=c1[nH]c(CC2CCCO2)nc2c1cnn2C1CCCC1", "note": "(stereo not shown)", "values": [{"measurement": "melting point", "result": 179, "unit": "°C"}]}, {"smiles": "CCC(CC)n1ncc2c(=O)[nH]c(CC3CCCO3)nc21", "note": "(stereo not shown) [Example 11, 1-(1-Ethylpropyl)-6-(tetrahydro-2-furanylmethyl)-1,5-dihydro-4H-pyrazolo[3,4-d]-pyrimidin-4-one]", "values": [{"measurement": "melting point", "result": 136, "unit": "°C"}]}, {"smiles": "CCC(CC)n1ncc2c(=O)[nH]c(CC(C)C(F)(F)F)nc21", "note": "(stereo not shown) [Example 22, 1-(1-Ethylpropyl)-6-(3,3,3-trifluoro-2-methylpropyl)-1,5-dihydro-4H-pyrazolo[3,4-d]pyrimidin-4-one]", "values": [{"measurement": "melting point", "result": 156, "unit": "°C"}]}, {"smiles": "COc1ccc(C2CNC(=O)C2)cc1OC1CCCC1", "note": "(stereo not shown) [rolipram]", "values": [{"measurement": "inhibition on the isolated enzyme", "setting": "[1]", "result": "no inhibition"}]}, {"smiles": "CCOC(=O)C1=C[C@]2(CC)CCCN3CCc4c(n1c1ccccc41)[C@@H]32", "note": "[vinpocetine]", "values": [{"measurement": "inhibition on the isolated enzyme", "setting": "[1]", "result": "no inhibition"}]}, {"smiles": "CCC(CC)n1ncc2c(=O)[nH]c(CC(C)C)nc21", "note": "[Example 9, 1-(1-Ethylpropyl)-6-isobutyl-1,5-dihydro-4H-pyrazolo[3,4-d]pyrimidin-4-one]", "values": [{"measurement": "melting point", "result": 161, "unit": "°C"}]}, {"smiles": "CCC(CC)n1ncc2c(=O)[nH]c(CC3CCCCC3)nc21", "note": "[Example 3, 6-(Cyclohexylmethyl)-1-(1-ethylpropyl)-1,5-dihydro-4H-pyrazolo[3,4-d]pyrimidin-4-one]", "values": [{"measurement": "IC50", "setting": "[2]", "result": 0.72, "unit": "µM"}, {"measurement": "IC50", "setting": "[3]", "result": "> 4", "unit": "µM"}, {"measurement": "IC50", "setting": "[4]", "result": "> 4", "unit": "µM"}, {"measurement": "IC50", "setting": "[5]", "result": "> 4", "unit": "µM"}, {"measurement": "melting point", "result": 122, "unit": "°C"}, {"measurement": "IC50", "setting": "[6]", "result": "> 4", "unit": "µM"}, {"measurement": "IC50", "setting": "[7]", "result": "> 4", "unit": "µM"}, {"measurement": "IC50", "setting": "[8]", "result": "> 4", "unit": "µM"}, {"measurement": "IC50", "setting": "[9]", "result": "> 4", "unit": "µM"}, {"measurement": "IC50", "setting": "[10]", "result": 0.11, "unit": "µM"}]}, {"smiles": "CC1CCC(Cc2nc3c(cnn3C3CCCC3)c(=O)[nH]2)CC1", "note": "(stereo not shown) [Example 15, 1-Cyclopentyl-6-[(4-methylcyclohexyl)methyl]-1,5-dihydro-4H-pyrazolo[3,4-d]-pyrimidin-4-one]", "values": [{"measurement": "melting point", "result": 126, "unit": "°C"}]}, {"smiles": "CC(=O)Nc1ccc(-c2c[nH]c(=O)cn2)cc1", "note": "[SKF94120]", "values": [{"measurement": "inhibition on the isolated enzyme", "setting": "[1]", "result": "no inhibition"}]}, {"smiles": "CCCc1nc2c(cnn2C(CC)CC)c(=O)[nH]1", "note": "[Example 10, 1-(1-Ethylpropyl)-6-propyl-1,5-dihydro-4H-pyrazolo[3,4-d]pyrimidin-4-one]", "values": [{"measurement": "melting point", "result": 127, "unit": "°C"}]}, {"smiles": "O=c1[nH]c(CC2C=CCC2)nc2c1cnn2C1CCCC1", "note": "(stereo not shown)", "values": [{"measurement": "melting point", "result": 166, "unit": "°C"}]}, {"smiles": "O=c1[nH]c(CC2CCCCC2)nc2c1cnn2C1CCCC1", "values": [{"measurement": "melting point", "result": 147, "unit": "°C"}]}, {"smiles": "CCOC(=O)CCc1nc2c(cnn2C(CC)CC)c(=O)[nH]1", "note": "[Example 14, Ethyl 4-[1-(1-ethylpropyl)-4-oxo-4,5-dihydro-1H-pyrazolo[3,4-d]pyrimidin-6-yl]-propionate]", "values": [{"measurement": "melting point", "result": 118, "unit": "°C"}]}, {"smiles": "CCC(CC)n1ncc2c(=O)[nH]c(CC3C=CCC3)nc21", "note": "(stereo not shown)", "values": [{"measurement": "melting point", "result": 128, "unit": "°C"}]}, {"smiles": "CC(Cc1nc2c(cnn2C2CCCC2)c(=O)[nH]1)C(F)(F)F", "note": "(stereo not shown) [Example 23, 1-(1-Cyclopentyl)-6-(3,3,3-trifluoro-2-methylpropyl)-1,5-dihydro-4H-pyrazolo[3,4-d]pyrimidin-4-one]", "values": [{"measurement": "melting point", "result": 166, "unit": "°C"}]}, {"smiles": "CC(C)CCc1nc2c(cnn2C2CCCC2)c(=O)[nH]1", "note": "[Example 5, 1-Cyclopentyl-6-(3-methylbutyl)-1,5-dihydro-4H-pyrazolo[3,4-d]pyrimidin-4-one]", "values": [{"measurement": "melting point", "result": 133, "unit": "°C"}]}, {"smiles": "CCC(CC)n1ncc2c(=O)[nH]c(CC3CCCC3)nc21", "note": "[Example 21, 6-(Cyclopentylmethyl)-1-(1-ethylpropyl)-1,5-dihydro-4H-pyrazolo[3,4-d]pyrimidin-4-one]", "values": [{"measurement": "melting point", "result": 156, "unit": "°C"}]}, {"smiles": "CCOC(=O)CCc1nc2c(cnn2C2CCCC2)c(=O)[nH]1", "note": "[Example 18, Ethyl 4-[1-cyclopentyl-4-oxo-4,5-dihydro-1H-pyrazolo[3,4-d]pyrimidin-6-yl]-propionate]", "values": [{"measurement": "melting point", "result": 185, "unit": "°C"}]}, {"smiles": "O=c1[nH]c(CCCO)nc2c1cnn2C1CCCC1", "note": "[Example 2, 1-Cyclopentyl-6-(3-hydroxypropyl)-1,5-dihydro-4H-pyrazolo[3,4-d]pyrimidin-4-one]", "values": [{"measurement": "melting point", "result": 138, "unit": "°C"}]}, {"smiles": "OCCN(CCO)c1nc(N2CCCCC2)c2nc(N(CCO)CCO)nc(N3CCCCC3)c2n1", "note": "[dipyridamole]", "values": [{"measurement": "inhibition on the isolated enzyme", "setting": "[1]", "result": "no inhibition"}]}, {"smiles": "CCC(C)Cc1nc2c(cnn2C(CC)CC)c(=O)[nH]1", "note": "(stereo not shown) [Example 7, 1-(1-Ethylpropyl)-6-(2-methylbutyl)-1,5-dihydro-4H-pyrazolo[3,4-d]pyrimidin-4-one]", "values": [{"measurement": "melting point", "result": 121, "unit": "°C"}]}, {"smiles": "CC(C)Cn1c(=O)n(C)c(=O)c2[nH]cnc21", "note": "[IBMX]", "values": [{"measurement": "inhibition", "setting": "[11]", "result": "not inhibited"}, {"measurement": "inhibition on the isolated enzyme", "setting": "[1]", "result": "no inhibition"}]}, {"smiles": "CCC(CC)n1ncc2c(=O)[nH]c(CCC(C)C)nc21", "note": "[Example 8, 1-(1-Ethylpropyl)-6-isopentyl-1,5-dihydro-4H-pyrazolo[3,4-d]pyrimidin-4-one]", "values": [{"measurement": "melting point", "result": 127, "unit": "°C"}]}]}
